The record followed here is patent US10196364B2, “Pyrimidine carboxamides as sodium channel blockers” (Purdue Pharma L.P., priority 2013, dated 2019).

The IC50 is the point on the concentration scale where inhibition reaches its midpoint.

Molecules are shown by their SMILES.

Common to all, as to type: cell-based
In experiment [1] the target is hNav1.7 (Homo sapiens, UniProt Q15858). The experiment can be described thus: Electrophysiology (EP) whole-cell patch clamp assay in hNav1.7 expressing HEK-293 cells. Particulars: Table 6; for Ki: affinity for inactivated channels, read-out: Nav1.7 Activity (μM) EP assay Ki; for Kd: resting block dissociation constant, read-out: Nav1.7 Activity (μM) EP assay Kr. The protocol:
The hNav1.7 expressing HEK-293 cells were plated on 35 mm culture dishes pre-coated with poly-D-lysine in standard DMEM culture media (Mediatech, Inc., Herndon, Va.) and incubated in a 5% CO2 incubator at 37° C. Cultured cells were used approximately 12-48 h after plating.
On the day of experimentation, the 35 mm dish was placed on the stage of an inverted microscope equipped with a perfusion system that continuously perfuses the culture dish with fresh recording media. A gravity driven superfusion system was used to apply test solutions directly to the cell under evaluation. This system consists of an array of glass pipette glass connected to a motorized horizontal translator. The outlet of the shooter was positioned approximately 100 μm from the cell of interest.
Whole cell currents were recorded using the whole-cell patch clamp configuration using an Axopatch 200B amplifier (Axon Instruments, Foster City Calif.), 1322A A/D converter (Axon Instruments) and pClamp software (v. 8; Axon Instruments) and stored on a personal computer. Gigaseals were formed and the whole-cell configuration was established in voltage clamp mode, and membrane currents generated by hNav1.7 were recorded in gap-free mode. Borosilicate glass pipettes have resistance values between 1.5 and 2.0 MΩ when filled with pipette solution and series resistance (<5 MΩ) was compensated 75-80%. Signals were sampled at 50 kHz and low pass filtered at 3 kHz.
After establishing the whole-cell configuration in voltage clamp mode, two voltage protocols were run to establish: 1) the holding potential; and 2) the test potential for each cell.
To determine a membrane potential at which the majority of channels are in the resting state, a standard steady-state inactivation (SSIN) protocol was run using 100 ms prepulses×10 mV depolarizing steps. The holding potential for testing resting block (Vh1) was 20 mV more hyperpolarized than the first potential where inactivation is observed with the inactivation protocol.
From this holding potential a standard I-V protocol was run to determine the potential at which the maximal current (Imax) was elicited. This potential was the test potential (Vt).
The compound testing protocol was a series of 10 ms depolarizations from the Vh1 (determined from the SSIN) to the Vt (determined from the I-V protocol) repeated every 10-15 seconds. […] Washout of the compound was attempted by superfusing with control solution once steady-state block was observed. The fractional response was calculated as follows: FR=I(after drug)/I(control), where I is the peak current amplitude and was used for estimating resting block dissociation constant, Kr: Kr=[drug]*{FR/(1−FR)}, where [drug] is the concentration of a drug.
To assess the block of inactivated channels the holding potential was depolarized such that 20-50% of the current amplitude was reduced when pulsed to the same Vt as above. The magnitude of this depolarization depends upon the initial current amplitude and the rate of current loss due to slow inactivation. This was the second holding potential (Vh2). The current reduction was recorded to determine the fraction of available channels at this potential (h). h=I@Vh2/Imax.
At this membrane voltage a proportion of channels are in the inactivated state, and thus inhibition by a blocker includes interaction with both resting and inactivated channels.
To determine the potency of the test compound on inactivated channels, a series of currents were elicited by 10 ms voltage steps from Vh2 to Vt every 10-15 seconds. After establishing a stable baseline, the low concentration of the compound was applied. Multiple cumulative concentrations may have to be applied to identify a concentration that will block between 40-60% of the current. Washout was attempted to re-establish baseline. Fractional responses were measured with respect to a projected baseline to determine Kapp. Kapp=[drug]*{FR/(1−FR)}, where [drug] is the concentration of a drug. […]
For orientation: In patch-clamp work, channel activity is measured electrically.

For experiment [2], the target named is T1, human Nav1.7 (Homo sapiens, UniProt Q15858). The experiment can be described thus: FLIPR sodium dye assay (CoroNa Green AM Na+ dye, primary fluorescence assay) in recombinant Nav1.7/HEK293 cells. Conditions: Table 6; CoroNa Green AM Na+ dye primary fluorescence assay; read-out: Nav1.7 Activity (μM) FLIPR assay IC50.
T1 sequence (Q15858 1-1977 isoform Q15858-3): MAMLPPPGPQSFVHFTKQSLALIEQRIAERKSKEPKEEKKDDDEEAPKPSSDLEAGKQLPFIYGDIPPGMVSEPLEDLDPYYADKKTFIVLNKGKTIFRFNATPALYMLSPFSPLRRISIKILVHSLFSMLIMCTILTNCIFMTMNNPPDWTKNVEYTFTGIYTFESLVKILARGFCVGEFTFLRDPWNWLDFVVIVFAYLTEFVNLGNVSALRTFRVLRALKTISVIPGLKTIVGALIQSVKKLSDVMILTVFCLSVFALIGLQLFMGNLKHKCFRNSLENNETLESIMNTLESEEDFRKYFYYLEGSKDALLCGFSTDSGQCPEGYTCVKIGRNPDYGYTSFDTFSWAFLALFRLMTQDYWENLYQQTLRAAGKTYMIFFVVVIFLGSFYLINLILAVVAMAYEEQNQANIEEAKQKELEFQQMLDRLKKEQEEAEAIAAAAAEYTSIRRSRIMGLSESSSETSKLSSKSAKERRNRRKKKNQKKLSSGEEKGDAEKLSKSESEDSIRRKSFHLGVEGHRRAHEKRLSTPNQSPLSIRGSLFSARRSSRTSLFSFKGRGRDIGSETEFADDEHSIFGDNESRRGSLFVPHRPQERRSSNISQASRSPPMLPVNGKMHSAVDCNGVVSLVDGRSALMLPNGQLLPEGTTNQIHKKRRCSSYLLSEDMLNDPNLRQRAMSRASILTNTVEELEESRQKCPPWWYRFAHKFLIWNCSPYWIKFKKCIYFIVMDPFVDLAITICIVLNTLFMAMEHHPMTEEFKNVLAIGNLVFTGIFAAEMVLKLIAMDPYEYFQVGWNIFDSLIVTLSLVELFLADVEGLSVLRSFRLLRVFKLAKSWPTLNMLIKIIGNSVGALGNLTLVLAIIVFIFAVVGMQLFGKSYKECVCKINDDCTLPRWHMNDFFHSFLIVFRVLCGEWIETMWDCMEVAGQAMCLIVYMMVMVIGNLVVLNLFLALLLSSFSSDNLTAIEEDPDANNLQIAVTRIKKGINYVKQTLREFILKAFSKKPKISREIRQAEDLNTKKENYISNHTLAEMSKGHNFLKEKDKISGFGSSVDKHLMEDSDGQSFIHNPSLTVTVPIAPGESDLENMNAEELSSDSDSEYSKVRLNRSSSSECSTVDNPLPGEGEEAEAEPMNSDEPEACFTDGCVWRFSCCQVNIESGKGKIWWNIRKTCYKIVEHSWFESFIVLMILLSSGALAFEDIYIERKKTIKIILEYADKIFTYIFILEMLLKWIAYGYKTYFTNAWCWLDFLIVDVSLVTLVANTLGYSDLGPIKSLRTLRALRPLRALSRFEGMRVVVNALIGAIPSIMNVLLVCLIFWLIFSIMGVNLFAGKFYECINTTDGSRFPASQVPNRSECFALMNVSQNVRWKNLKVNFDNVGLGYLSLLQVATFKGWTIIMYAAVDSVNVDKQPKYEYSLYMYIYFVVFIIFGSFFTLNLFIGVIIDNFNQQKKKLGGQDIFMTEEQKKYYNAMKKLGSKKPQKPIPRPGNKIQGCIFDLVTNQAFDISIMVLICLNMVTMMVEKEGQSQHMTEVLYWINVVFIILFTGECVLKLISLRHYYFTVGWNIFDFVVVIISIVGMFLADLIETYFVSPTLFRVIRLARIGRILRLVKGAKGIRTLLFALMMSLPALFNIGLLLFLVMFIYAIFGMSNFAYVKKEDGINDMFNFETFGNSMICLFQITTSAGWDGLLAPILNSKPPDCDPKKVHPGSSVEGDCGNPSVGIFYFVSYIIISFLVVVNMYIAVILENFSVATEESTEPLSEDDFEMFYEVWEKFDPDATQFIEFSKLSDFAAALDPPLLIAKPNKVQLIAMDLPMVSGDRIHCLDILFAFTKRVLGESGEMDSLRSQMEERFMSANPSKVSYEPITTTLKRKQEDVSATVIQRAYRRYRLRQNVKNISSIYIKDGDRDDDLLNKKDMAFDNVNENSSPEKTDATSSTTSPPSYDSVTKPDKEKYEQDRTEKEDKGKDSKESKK
The target of experiment [3] is T1, human Nav1.7. The experiment can be described thus: FLIPR membrane potential dye assay (alternative fluorescence assay) in Nav1.7 expressing cells. Conditions: Table 7.

hNav1.7, sequence (Q15858 1-1977 isoform Q15858-3): as above

Consider `NC(=O)c1cc(N[C@H]2CCNC2=O)nc(N2[C@@H]3CC[C@H]2C[C@H](Oc2ccc(C(F)(F)F)cn2)C3)n1` [Cpd No. 183, 6-(((S)-2-oxopyrrolidin-3-yl)amino)-2-((1R,3R,5S)-3-((5-(trifluoromethyl)pyridin-2-yl)oxy)-8-azabicyclo[3.2.1]octan-8-yl)pyrimidine-4-carboxamide], for which the Ki in experiment [1] was determined as 0.49 µM. For the same compound, in experiment [2], the IC50 turned out to be 1.27 µM. Regarding `NC(=O)c1cc(N[C@H]2CCNC2=O)nc(-c2ccc(Cc3ccc(C(F)(F)F)cn3)cc2)n1` [Cpd No. 190, (S)-6-((2-oxopyrrolidin-3-yl)amino)-2-(4-((5-(trifluoro-methyl)pyridin-2-yl)methyl)-phenyl)pyrimidine-4-carboxamide], the Ki in experiment [1] is 0.29 µM. The IC50 in experiment [2] worked out at 1.61 µM.

`CCN(CC)Cc1cc(C(F)(F)F)ccc1Oc1ccc(-c2nc(O[C@H]3CCNC3=O)cc(C(N)=O)n2)cc1` [Cpd No. 216, (S)-2-(4-(2-((diethylamino)-methyl)-4-(trifluoromethyl)-phenoxy)phenyl)-6-((2-oxopyrrolidin-3-yl)oxy)-pyrimidine-4-carboxamide] came in with a half-inhibitory concentration (IC50) in experiment [3] of 1.21 µM. On the same count and under the same terms, next, `CC(=O)c1ccc(Oc2ccc(-c3nc(N[C@H]4CCNC4=O)cc(C(N)=O)n3)cc2)nc1` [Cpd No. 217, (S)-2-(4-((5-acetylpyridin-2-yl)oxy)phenyl)-6-((2-oxo-pyrrolidin-3-yl)amino)-pyrimidine-4-carboxamide]: above 20 µM. `Cn1cc(-c2ccc(-c3nc(N[C@H]4CCNC4=O)cc(C(N)=O)n3)cc2)c2ccc(C(F)(F)F)cc21` [Cpd No. 218, (S)-2-(4-(1-methyl-6-(trifluoromethyl)-1H-indol-3-yl)phenyl)-6-((2-oxopyrrolidin-3-yl)amino)pyrimidine-4-carboxamide]: in experiment [3], the midpoint of inhibition, the IC50, lay at 4.03 µM. In turn, `Cn1nccc1-c1cc(Oc2ccc(C(F)(F)F)cc2)ccc1-c1nc(N[C@H]2CCNC2=O)cc(C(N)=O)n1` [Cpd No. 219, (S)-2-(2-(1-methyl-1H-pyrazol-5-yl)-4-(4-(trifluoromethyl)-phenoxy)phenyl)-6-((2-oxopyrrolidin-3-yl)amino)-pyrimidine-4-carboxamide] yielded a concentration for half-maximal inhibition (IC50) in experiment [3] of 0.94 µM. Regarding `NC(=O)c1cc(N[C@H]2CCNC2=O)nc(-c2ccc(Oc3ccc(C(F)F)cn3)cc2)n1` [Cpd No. 220, (S)-2-(4-((5-(difluoromethyl)-pyridin-2-yl)oxy)phenyl)-6-((2-oxopyrrolidin-3-yl)amino)-pyrimidine-4-carboxamide], in experiment [3], the midpoint of inhibition, the IC50, lay at 2.76 µM. On to `NC(=O)c1cc(N[C@H]2CCNC2=O)nc(-c2ccc(N3Cc4cc(Cl)ccc4OCC3=O)cc2)n1` [Cpd No. 221, (S)-2-(4-(7-chloro-3-oxo-2,3-dihydrobenzo[f][1,4]oxazepin-4(5H)-yl)phenyl)-6-((2-oxopyrrolidin-3-yl)amino)-pyrimidine-4-carboxamide], for which, in experiment [3], the IC50 is above 20 µM.

In experiment [3], `C[C@H](Nc1cc(C(N)=O)nc(-c2ccc(N3Cc4cc(Cl)ccc4OCC3=O)cc2)n1)C(N)=O` [Cpd No. 222, (S)-6-((1-amino-1-oxopropan-2-yl)amino)-2-(4-(7-chloro-3-oxo-2,3-dihydrobenzo-[f][1,4]oxazepin-4(5H)-yl)phenyl)pyrimidine-4-carboxamide] yielded an IC50 above 20 µM. As for `C[C@H](Nc1cc(C(N)=O)nc(-c2ccc(N3CCOc4cc(F)ccc43)cc2)n1)C(N)=O` [Cpd No. 223, (S)-6-((1-amino-1-oxopropan-2-yl)amino)-2-(4-(7-fluoro-2,3-dihydro-4H-benzo[b][1,4]oxazin-4-yl)phenyl)pyrimidine-4-carboxamide], the half-inhibitory concentration (IC50) in experiment [3] was determined as 3.78 µM. Compound `C[C@H](Nc1cc(C(N)=O)nc(N2CC[C@H](Oc3ccc(C(F)(F)F)cc3)C2)n1)C(N)=O` [Cpd No. 225, 6-(((S)-1-amino-1-oxopropan-2-yl)amino)-2-((S)-3-(4-(trifluoro-methyl)phenoxy)pyrrolidin-1-yl)pyrimidine-4-carboxamide] registered a half-inhibitory concentration (IC50) in experiment [3] of 10 to 20 µM.

As to `NC(=O)c1cc(N[C@H]2CCNC2=O)nc(-c2ccc(Oc3cc(Cl)ccc3F)cc2)n1` [compound 117, (S)-2-(4-(5-chloro-2-fluorophenoxy)phenyl)-6-((2-oxopyrrolidin-3-yl)amino)pyrimidine-4-carboxamide], in experiment [1], the Ki was 0.027 µM and the Kd came out at 0.83 µM. For the same compound, the IC50 in experiment [2] was 0.2 µM. For `NC(=O)c1cc(N[C@H]2CCNC2=O)nc(-c2ccc(Oc3ccc(Cl)cn3)cc2)n1` [compound 133, (S)-2-(4-((5-chloropyridin-2-yl)oxy)phenyl)-6-((2-oxopyrrolidin-3-yl)amino)pyrimidine-4-carboxamide] the same measures were 0.57 µM, 7.17 µM and 0.39 µM.

As for `NC(=O)c1cc(N[C@H]2CCNC2=O)nc(-c2ccc(Oc3cccc(F)n3)cc2)n1` [compound 134, (S)-2-(4-((6-fluoropyridin-2-yl)oxy)phenyl)-6-((2-oxopyrrolidin-3-yl)amino) pyrimidine-4-carboxamide], in experiment [1], the Ki turned out to be 0.82 µM and the Kd was 22.1 µM. In addition, the IC50 in experiment [2] amounted to 2.42 µM. The like results for `NC(=O)c1cc(N[C@H]2CCNC2=O)nc(N2C3CCC2CC(Oc2ccc(C(F)(F)F)cn2)C3)n1` (stereo partly drawn) [compound 140, 6-(((S)-2-oxopyrrolidin-3-yl)amino)-2-(3-((5-(trifluoromethyl)pyridin-2-yl)oxy)-8-azabicyclo[3.2.1]octan-8-yl)pyrimidine-4-carboxamide] were, in that order, 2.55 µM, 46.2 µM and 0.38 µM. `NC(=O)c1cc(N[C@H]2CCNC2=O)nc(-c2ccc(Oc3ccc(C4CC4)cn3)cc2)n1` [compound 142, (S)-2-(4-((5-cyclopropylpyridin-2-yl)oxy)phenyl)-6-((2-oxopyrrolidin-3-yl)amino)pyrimidine-4-carboxamide]: in experiment [1], the Ki is 0.3 µM and the Kd came to 26.8 µM. For the same compound, the IC50 in experiment [2] was 0.064 µM.

Turning to `C[C@H](Oc1cc(C(N)=O)nc(-c2ccc(Oc3ccc(C(F)(F)F)cn3)cc2)n1)C(N)=O` [compound 146, (S)-6-((1-amino-1-oxopropan-2-yl)oxy)-2-(4-((5-(trifluoromethyl)pyridin-2-yl)oxy)phenyl)pyrimidine-4-carboxamide], in experiment [1], the Ki amounted to 1.25 µM and the Kd amounted to 18.3 µM. Further, the IC50 in experiment [2] was found to be 0.52 µM. With `C[C@H](Nc1cc(C(N)=O)nc(-c2ccc(Oc3ccc(C(F)(F)F)cc3CN3CCCC3)cc2)n1)C(N)=O` [compound 170, (S)-6-((1-amino-1-oxopropan-2-yl)amino)-2-(4-(2-(pyrrolidin-1-ylmethyl)-4-(trifluoromethyl)phenoxy)phenyl) pyrimidine-4-carboxamide], the IC50 in experiment [2] was 1.17 µM. For the compound `C[C@H](Nc1cc(C(N)=O)nc(-c2ccc(Oc3ccc(C(C)(C)C)cc3)cc2)n1)C(N)=O` [compound 171, (S)-6-((1-amino-1-oxopropan-2-yl)amino)-2-(4-(4-(tert-butyl)phenoxy)phenyl)pyrimidine-4-carboxamide], in experiment [2], the IC50 was found to be 0.25 µM. Same read-out and setting: next, `NC(=O)c1cc(N[C@H]2CCNC2=O)nc(Nc2ccc(Oc3ccc(C(F)(F)F)cn3)cc2)n1` [compound 172, (S)-6-((2-oxopyrrolidin-3-yl)amino)-2-((4-((5-(trifluoromethyl)pyridin-2-yl)oxy)phenyl)amino)pyrimidine-4-carboxamide]: 2.07 µM.
